Assay results as given in patent publication EP0182152B1, “Antitumor antibiotics (LL-E33288 Complex)” (AMERICAN CYANAMID COMPANY, priority 1984, dated 1986).

How the values were obtained:
Morganella morganii = assay: in vitro antibacterial activity, agar dilution MIC; type: cell-based; conditions: Morganella morganii IO 83-18
Protocol: (§1) The in vitro antibacterial activity of LL-E33288 components was determined against a spectrum of gram-positive and gram-negative bacteria by a standard agar dilution method. Mueller-Hinton again containing two-fold decreasing concentrations of the antibiotics were poured into petri plates. the agar surfaces were inoculated with 1 to 5 x 10^4 colong forming units of bacteria by means of the steers replicating device.

Serratia marcescens = assay: in vitro antibacterial activity, agar dilution MIC; type: cell-based
Protocol: as §1

Citrobacter diversus = assay: in vitro antibacterial activity, agar dilution MIC; type: cell-based; conditions: Citrobacter diversus K 82-84
Protocol: as §1

Citrobacter freundii = assay: in vitro antibacterial activity, agar dilution MIC; type: cell-based; conditions: Citrobacter freundii IO 83-13
Protocol: as §1

Klebsiella pneumoniae = assay: in vitro antibacterial activity, agar dilution MIC; type: cell-based
Protocol: as §1

Enterobacter cloacae = assay: in vitro antibacterial activity, agar dilution MIC; type: cell-based; conditions: Enterobacter cloacae CMC 84-4
Protocol: as §1

Escherichia coli = assay: in vitro antibacterial activity, agar dilution MIC; type: cell-based
Protocol: as §1

Enterobacter aerogenes = assay: in vitro antibacterial activity, agar dilution MIC; type: cell-based; conditions: Enterobacter aerogenes IO 83-44
Protocol: as §1

Providencia stuartii = assay: in vitro antibacterial activity, agar dilution MIC; type: cell-based; conditions: Providencia stuartii CMC 83-82
Protocol: as §1

Acinetobacter sp. = assay: in vitro antibacterial activity, agar dilution MIC; type: cell-based
Protocol: as §1

[1] = test system: M5076 reticular cell Sarcoma; assay: M5076 Sarcoma test; type: in vivo, BDF1 mice; conditions: Table VIII, i.p. days 1, 5, 9, 13 and 17, control 28.5 days
Protocol: The M5076 reticular cell Sarcoma is propagated as subcutaneous implants in C57B2/6 female mice. In the assays for antitumor activity, BDF1 mice of either sex were inoculated intraperitoneally with 0.5 ml of a 10% tumor brei. LL-E33288 antibiotics were tested in the M5076 system as a complex (Bromo-complex) of all components. Test compounds were administered intraperitoneally on days 1, 5, 9, 13 and 17 relative to tumor inoculation on day zero. The median survival time in days was determined for each drug dose used on day 60 and the ratio of survival time for treated (T)/control (C) animals were calculated. The results of this test appear in Table VIII compared to the results obtained with Cisplatin. If T/C X 100 (%) is 125 or over, the tested compound is considered to have significant anti-tumor activity.

Structure (SMILES): CCN[C@H]1CO[C@@H](O[C@H]2[C@H](O[C@H]3C#CC=CC#C[C@@]4(O)CC(=O)C(NC(=O)OC)=C3/C4=C\CSSSC)O[C@H](C)[C@@H](NO[C@H]3C[C@H](O)[C@H](SC(=O)c4c(C)c(I)c(O[C@@H]5O[C@@H](C)[C@H](O)[C@@H](OC)[C@H]5O)c(OC)c4OC)[C@@H](C)O3)[C@@H]2O)C[C@@H]1OC (stereo in doubt) [LL-E33288γ1-I]
- Minimal Inhibitory Concentration (Morganella morganii): 0.25 µg/mL
- Minimal Inhibitory Concentration (Serratia marcescens; Serratia marcescens CMC 83-27): 0.25 µg/mL
- Minimal Inhibitory Concentration (Serratia marcescens; Serratia marcescens F35 (MP)): 0.12 µg/mL
- Minimal Inhibitory Concentration (Citrobacter diversus): 0.25 µg/mL
- Minimal Inhibitory Concentration (Citrobacter freundii): 0.12 µg/mL
- Minimal Inhibitory Concentration (Klebsiella pneumoniae; Klebsiella pneumoniae AD (MP)): 0.25 µg/mL
- Minimal Inhibitory Concentration (Klebsiella pneumoniae; Klebsiella pneumoniae CMC 84-5): 0.25 µg/mL
- Minimal Inhibitory Concentration (Enterobacter cloacae): 0.50 µg/mL
- Minimal Inhibitory Concentration (Escherichia coli; Escherichia coli ATCC 25922): 0.25 µg/mL
- Minimal Inhibitory Concentration (Escherichia coli; Escherichia coli CMC 84-11, about 18 hours, 35°C): 0.25 µg/mL
- Minimal Inhibitory Concentration (Escherichia coli; Escherichia coli No. 311-(MP)): 0.25 µg/mL
- Minimal Inhibitory Concentration (Enterobacter aerogenes): 0.50 µg/mL
- Minimal Inhibitory Concentration (Providencia stuartii): 0.25 µg/mL
- Minimal Inhibitory Concentration (Acinetobacter sp.; Acinetobacter sp. CMC 83-89): 0.12 µg/mL
- Minimal Inhibitory Concentration (Acinetobacter sp.; Acinetobacter sp. IO 83-49): 0.06 µg/mL

Structure (SMILES): N.N.[Cl][Pt][Cl] [Cisplatin, reference compound]
- Median Survival ([1]; dose 0.25 mg/kg): 45 days
- T/C x 100 ([1]; dose 0.25 mg/kg): 158%
- Median Survival ([1]; dose 0.5 mg/kg): 44.5 days
- T/C x 100 ([1]; dose 0.5 mg/kg): 156%
- Median Survival ([1]; dose 1 mg/kg): 30 days
- T/C x 100 ([1]; dose 1 mg/kg): 105%
